The values that follow come from patent US8012956B2, “Tropane compounds” (Exelixis, Inc., priority 2007, dated 2011).

Bounds are passed on as bounds.

This assay has as its target HSP90 (Homo sapiens, UniProt P07900). Briefly: HSP90 inhibition (HSP90 IC50). It counts as biochemical.
With `COc1cccc(C(=O)N[C@H]2C[C@H]3CC[C@@H](C2)N3c2ccc(C(=O)NCc3cccc(Cl)c3)cn2)c1C` [N-[(3-chlorophenyl)methyl]-6-[3-endo-({[2-methyl-3-(methyloxy)phenyl]carbonyl}amino) 8-azabicyclo[3.2.1]oct-8-yl]pyridine-3-carboxamide], the IC50 was 2000 to 10000 nM.

`COc1cccc(C(=O)N[C@H]2C[C@H]3CC[C@@H](C2)N3c2ccc(C(=O)NCc3cccc(F)c3)cn2)c1C` [N-[(3-fluorophenyl)methyl]-6-[3-endo-({[2-methyl-3-(methyloxy)phenyl]carbonyl}amino)-8-azabicyclo[3.2.1]oct-8-yl]pyridine-3-carboxamide] gave a concentration for half-maximal inhibition (IC50) of 1000 to 2000 nM.

In turn, `CCN(CC)CCOc1cccc(CNC(=O)c2ccc(N3[C@@H]4CC[C@H]3C[C@@H](NC(=O)c3cccc(OC)c3C)C4)nc2)c1` [N-[(3-{[2-(diethylamino)ethyl]oxy}pheny)methyl]-6-[3-endo-({[2-methyl-3-(methyloxy)phenyl]carbonyl}amino)-8-azabicyclo[3.2.1]oct-8-yl]pyridine-3-carboxamide] displayed an IC50 of under 500 nM.

In the case of `COc1cccc(C(=O)N[C@H]2C[C@H]3CC[C@@H](C2)N3c2ccc(C(=O)NCc3ccc(Br)cc3)cn2)c1C` [N-[(4-bromophenyl)methyl]-6-[3-endo-({[2-methyl-3-(methyloxy)phenyl]carbonyl}amino)-8-azabicyclo[3.2.1]oct-8-yl]pyridine-3-carboxamide], the IC50 was in the range of 500 to 999 nM.

Regarding `COc1cccc(C(=O)N[C@H]2C[C@H]3CC[C@@H](C2)N3c2ccc(C(=O)NCc3ccc(Cl)cc3)cn2)c1C` [N-[(4-chlorophenyl)methyl]-6-[3-endo-({[2-methyl-3-(methyloxy)phenyl]carbonyl}amino)-8-azabicyclo[3.2.1]oct-8-yl]pyridine-3-carboxamide], the 50% inhibitory concentration (IC50) lay in the range of 500 to 999 nM.

On to `COc1cccc(C(=O)N[C@H]2C[C@H]3CC[C@@H](C2)N3c2ccc(C(=O)NCc3ccc(F)cc3)cn2)c1C` [N-[(4-fluorophenyl)methyl]-6-[3-endo-({[2-methyl-3-(methyloxy)phenyl]carbonyl}amino)-8-azabicyclo[3.2.1]oct-8-yl]pyridine-3-carboxamide], for which the IC50 was under 500 nM.

Turning to `CCN(CC)CCOc1ccc(CNC(=O)c2ccc(N3[C@@H]4CC[C@H]3C[C@@H](NC(=O)c3cccc(OC)c3C)C4)nc2)cc1` [N-[(4-{[2-(diethylamino)ethyl]oxy}phenyl)methyl]-6-[3-endo-({[2-methyl-3-(methyloxy)phenyl]carbonyl}amino)-8-azabicyclo[3.2.1]oct-8-yl]pyridine-3-carboxamide], the IC50 was under 500 nM.

`COc1cccc(C(=O)N[C@H]2C[C@H]3CC[C@@H](C2)N3c2ccc(C(=O)NCc3ccc(Cl)nc3)cn2)c1C` [N-[(6-chloropyridin-3-yl)methyl]-6-[3-endo-({[2-methyl-3-(methyloxy)phenyl]carbonyl}amino)-8-azabicycio[3.2.1]oct-8-yl]pyridine-3-carboxamide] had a 50% inhibitory concentration (IC50) of under 500 nM.

Molecule `COc1cccc(C(=O)N[C@H]2C[C@H]3CC[C@@H](C2)N3c2ccc(C(=O)NC3CNC3)cn2)c1C` [N-azetidin-3-yl-6-[3-endo-({[2-methyl-3-(methyloxy)phenyl]carbonyl}amino)-8-azabicyclo[3.2.1]oct-8-yl]pyridine-3-carboxamide] yielded a half-inhibitory concentration (IC50) of 500 to 999 nM.

As to `CCCCNC(=O)c1ccc(N2[C@@H]3CC[C@H]2C[C@@H](NC(=O)c2cccc(OC)c2C)C3)nc1` [N-butyl-6-[3-endo-({[2-methyl-3-(methyloxy)phenyl]carbonyl}amino)-8-azabicyclo[3.2.1]oct-8-yl]pyridine-3-carboxamide], the IC50 lay within 500 to 999 nM.

Take `COc1cccc(C(=O)N[C@H]2C[C@H]3CC[C@@H](C2)N3c2ccc(C(=O)NC3CCC3)cn2)c1C` [N-cyclobutyl-6-[3-endo-({[2-methyl-3-(methyloxy)phenyl]carbonyl}amino)-8-azabicyclo[3.2.1]oct-8-yl]pyridine-3-carboxamide]: the IC50 is 500 to 999 nM.

On to `COc1cccc(C(=O)N[C@H]2C[C@H]3CC[C@@H](C2)N3c2ccc(C(=O)NC3CCCCC3)cn2)c1C` [N-cyclohexyl-6-[3-endo-({[2-methyl-3-(methyloxy)phenyl]carbonyl}amino)-8-azabicyclo[3.2.1]oct-8-yl]pyridine-3-carboxamide], for which the 50% inhibitory concentration (IC50) was 500 to 999 nM.

`COc1cccc(C(=O)N[C@H]2C[C@H]3CC[C@@H](C2)N3c2ccc(C(=O)NC3CCCC3)cn2)c1C` [N-cyclopentyl-6-[3-endo-({[2-methyl-3-(methyloxy)phenyl]carbonyl}amino)-8-azabicyclo[3.2.1]oct-8-yl]pyridine-3-carboxamide] returned an IC50 of 500 to 999 nM.

Regarding `COc1cccc(C(=O)N[C@H]2C[C@H]3CC[C@@H](C2)N3c2ccc(C(=O)NC3CC3)cn2)c1C` [N-cyclopropyl-6-[3-endo-({[2-methyl-3-(methyloxy)phenyl]carbonyl}amino)-8-azabicyclo[3.2.1]oct-8-yl]pyridine-3-carboxamide], the concentration for half-maximal inhibition (IC50) was in the range of 1000 to 2000 nM.

In the case of `CCNC(=O)c1ccc(N2[C@@H]3CC[C@H]2C[C@@H](NC(=O)c2cccc(OC)c2C)C3)nc1` [N-ethyl-6-[3-endo-({[2-methyl-3-(methyloxy)phenyl]carbonyl}amino)-8-azabicyclo[3.2.1]oct-8-yl]pyridine-3-carboxamide], the 50% inhibitory concentration (IC50) fell in the range of 500 to 999 nM.

`COc1cccc(C(=O)N[C@H]2C[C@H]3CC[C@@H](C2)N3c2ccc(C(=O)NO)cn2)c1C` [N-hydroxy-6-[3-endo-({[2-methyl-3-(methyloxy)phenyl]carbonyl}amino)-8-azabicyclo[3.2.1]oct-8-yl]pyridine-3-carboxamide] registered an IC50 of 2000 to 10000 nM.

`CNC(=O)c1ccc(N2[C@@H]3CC[C@H]2C[C@@H](NC(=O)c2cccc(OC)c2C)C3)nc1` [N-methyl-6-[3-endo-({[2-methyl-3-(methyloxy)phenyl]carbonyl}amino)-8-azabicyclo[3.2.1]oct-8-yl]pyridine-3-carboxamide] showed an IC50 of 1000 to 2000 nM.

In turn, `COc1ccc(C(C)NC(=O)c2ccc(N3[C@@H]4CC[C@H]3C[C@@H](NC(=O)c3cccc(OC)c3C)C4)nc2)cc1OC` (stereo partly drawn) [N-{1-[3,4-bis(methyloxy)phenyl]ethyl}-6-[3-endo-({[2-methyl-3-(methyloxy)phenyl]carbonyl}amino)-8-azabicyclo[3.2.1]oct-8-yl]pyridine-3-carboxamide] returned a half-maximal inhibitory concentration (IC50) of 500 to 999 nM.

For the molecule `COc1ccc(CCNC(=O)c2ccc(N3[C@@H]4CC[C@H]3C[C@@H](NC(=O)c3cccc(OC)c3C)C4)nc2)cc1OC` [N-{2-[3,4-bis(methyloxy)phenyl]ethyl}-6-[3-endo-({[2-methyl-3-(methyloxy)phenyl]carbonyl}amino)-8-azabicyclo[3.2.1]oct-8-yl]pyridine-3-carboxamide], the IC50 was 2000 to 10000 nM.

`COc1cccc(C(=O)N[C@H]2C[C@H]3CC[C@@H](C2)N3c2ccc(C(=O)NCCOC(C)C)cn2)c1C` [N-{2-[(1-methylethyl)oxy]ethyl}-6-(3-endo-({[2-methyl-3-(methyloxy)phenyl]carbonyl}amino)-8-azabicyclo[3.2.1]oct-8-yl]pyridine-3-carboxamide] registered an IC50 of 2000 to 10000 nM.

Take `COc1cccc(C(=O)N[C@H]2C[C@H]3CC[C@@H](C2)N3c2ccc(C(=O)NCCCOC(C)C)cn2)c1C` [N-{3-[(1-methylethyl)oxy]propyl}-6-[3-endo-({[2-methyl-3-(methyloxy)phenyl]carbonyl}amino)-8-azabicyclo[3.2.1]oct-8-yl]pyridine-3-carboxamide]: the half-maximal inhibitory concentration (IC50) was in the range of 1000 to 2000 nM.

Molecule `Cc1cc(C(N)=O)c(CC(C)C)cc1C(=O)N[C@H]1C[C@H]2CC[C@@H](C1)N2c1ccc(C(=O)C2CC2)cn1` [N-{8-(5-(cyclopropylcarbonyl)pyridin-2-yl]-8-azabicyclo[3.2.1]oct-3-endo-yl}-2-methyl-5-(2-methylpropyl)benzene-1,4-dicarboxamide] had an IC50 of under 500 nM.

Regarding `CCC(Nc1cc(C(=O)N[C@H]2C[C@H]3CC[C@@H](C2)N3c2ccc(C(=O)C3CC3)cn2)c(C)cc1C(N)=O)C1CC1` (stereo partly drawn) [N-{8-(5-(cyclopropylcarbonyl)pyridin-2-yl]-8-azabicyclo[3.2.1]oct-3-endo-yl}-5-[(1-cyclopropylpropyl)amino]-2-methylbenzene-1,4-dicarboxamide], the half-inhibitory concentration (IC50) is under 500 nM.

With `Cc1cc(C(=O)N[C@H]2C[C@H]3CC[C@@H](C2)N3c2ccc(C(N)=O)cn2)c(C)cc1C(N)=O` [N-{8-[5-(aminocarbonyl)pyridin-2-yl]-8-azabicyclo[3.2.1]oct-3-endo-yl}-2,5-dimethylbenzene-1,4-dicarboxamide], the half-inhibitory concentration (IC50) was under 500 nM.

On to `NC(=O)c1ccc(C(=O)N[C@H]2C[C@H]3CC[C@@H](C2)N3c2ccc(C(N)=O)cn2)cc1` [N-{8-[5-(aminocarbonyl)pyridin-2-yl]-8-azabicyclo[3.2.1]oct-3-endo-yl}benzene-1,4-dicarboxamide], for which the concentration for half-maximal inhibition (IC50) is 1000 to 2000 nM.

The molecule `Cc1cc(C(N)=O)c(NC(C)C2CC2)cc1C(=O)N[C@H]1C[C@H]2CC[C@@H](C1)N2c1ccc(C(=O)C2CC2)cn1` (stereo partly drawn) [N-{8-[5-(cyclopropylcarbonyl)pyridin-2-yl]-8-azabicycbo[3.2.1]oct-3-endo-yl}-5-[(l-cyclopropylethyl)amino]-2-methylbenzene-1,4-dicarboxamide] yielded a concentration for half-maximal inhibition (IC50) of under 500 nM.

With `Cc1cc(C(N)=O)c(NCC(C)(C)C)cc1C(=O)N[C@H]1C[C@H]2CC[C@@H](C1)N2c1ccc(C(=O)C2CC2)cn1` [N-{8-[5-(cyclopropylcarbonyl)pyridin-2-yl]-8-azabicyclo[3.2.1]oct-3-endo-yl)-5-[(2,2-dimethylpropyl)amino]-2-methylbenzene-1,4-dicarboxamide], the IC50 is under 500 nM.

As for `Cc1cc(C(N)=O)c(NCC2CC2)cc1C(=O)N[C@H]1C[C@H]2CC[C@@H](C1)N2c1ccc(C(=O)C2CC2)cn1` [N-{8-[5-(cyclopropylcarbonyl)pyridin-2-yl]-8-azabicyclo[3.2.1]oct-3-endo-yl)-5-[(cyclopropylmethyl)amino]-2-methylbenzene-1,4-dicarboxamide], the IC50 is under 500 nM.

As for `CCNc1cc(C(N)=O)c(N[C@H](C)CC)cc1C(=O)NC1CC2CCC(C1)N2c1ccc(C(=O)C2CC2)cn1` (stereo partly drawn) [N-{8-[5-(cyclopropylcarbonyl)pyridin-2-yl]-8-azabicyclo[3.2.1]oct-3-endo-yl}-2-(ethylamino)-5-{[(1R)-1-methylpropyl]amino}benzene-1,4-dicarboxamide], the IC50 lay in the range of 2000 to 10000 nM.

The IC50 is the midpoint of a concentration-inhibition curve. Low readings indicate greater potency, high ones weaker potency.
